A short description of data set [1]: pH of media after dissolving the composition in water. The data set is classed as physicochemical. Conditions: magnetic stirrer for 3 minutes.
The conditions of data set [2]: cited from earlier work.

In the case of “4-[3,5-bis(2-hydroxyphenyl)-[1,2,4]triazol-1-yl]benzoic acid [deferasirox]”, the pH of media in data set [1] (composition with 500 mg deferasirox and 40 mg sodium carbonate) amounted to 8.13; in data set [1] (composition with 500 mg deferasirox and 60 mg sodium carbonate), 8.33; in data set [1] (composition with 500 mg deferasirox and 80 mg sodium carbonate), 8.44; in data set [1] (composition with 500 mg deferasirox and 100 mg sodium carbonate) it was 8.65; in data set [1] (composition with 500 mg deferasirox and 120 mg sodium carbonate) it was 8.77; in data set [1] (composition with 500 mg deferasirox and 140 mg sodium carbonate) it was 8.84. The pH of media in data set [1] (composition with 500 mg deferasirox and 160 mg sodium carbonate) was 8.91. For the same substance, the permeability entry in data set [2] is “good permeability”.
